Assay results as given in patent US20240270762A1, “PENICILLIN-BINDING PROTEIN INHIBITORS” (priority 2021, published 2024).
≈ marks a conversion by molar mass, not a printed value.

What was measured:
K. pneumoniae 848844 = assay: microbe, parasite or virus in culture; type: cell-based; details: Klebsiella pneumoniae, 848844, read-out: MIC K. pneumoniae 848844
K. pneumoniae SI-117 = assay: microbe, parasite or virus in culture; type: cell-based; details: Klebsiella pneumoniae, SI117, read-out: MIC K. pneumoniae SI-117
E. coli ATCC 25922 = assay: microbe, parasite or virus in culture; type: cell-based; details: Escherichia coli, ATCC25922, read-out: MIC E. coli 25922
K. pneumoniae UMM = assay: microbe, parasite or virus in culture; type: cell-based; details: Klebsiella pneumoniae, read-out: MIC K. pneumoniae UMM
E. coli AG100A = assay: Broth microdilution MIC in CAMHB; type: cell-based; details: Escherichia coli, read-out: MIC E. coli AG100A
E. coli AG100 = assay: microbe, parasite or virus in culture; type: cell-based; details: Escherichia coli, AG100, read-out: MIC E. coli AG100
P. aeruginosa ATCC 27853 = assay: microbe, parasite or virus in culture; type: cell-based; details: Pseudomonas aeruginosa, ATCC27853, read-out: MIC P. aeruginosa ATCC 27853
E. coli D22 = assay: microbe, parasite or virus in culture; type: cell-based; details: Escherichia coli, D22, read-out: MIC E. coli D22
P. aeruginosa ATCC 35151 = assay: microbe, parasite or virus in culture; type: cell-based; details: Pseudomonas aeruginosa, ATCC35151, read-out: MIC P. aeruginosa ATCC 35151
[1] = test system: P. aeruginosa (ΔmexAB-oprM); assay: Broth microdilution MIC in CAMHB; type: cell-based; details: Pseudomonas aeruginosa; read-out: MIC P. aeruginosa ΔmexAB-oprM
A. baumannii ATCC 19606 = assay: microbe, parasite or virus in culture; type: cell-based; details: Acinetobacter baumannii, ATCC19606, read-out: MIC, A. baumannii ATCC 19606
E. coli 901C = assay: microbe, parasite or virus in culture; type: cell-based; details: Escherichia coli, read-out: MIC E. coli 901C
A. baumannii PBP1a = target: T1, A. baumannii PBP1a (Acinetobacter baumannii, UniProt A0ABX6CK30); assay: Bocillin-FL competition binding via gel filtration, A. baumannii PBP1a; details: competition binding assay using Bocillin-FL via gel filtration; read-out: A. baumannii PBP1a Potency
T1 sequence (A0ABX6CK30 1-851): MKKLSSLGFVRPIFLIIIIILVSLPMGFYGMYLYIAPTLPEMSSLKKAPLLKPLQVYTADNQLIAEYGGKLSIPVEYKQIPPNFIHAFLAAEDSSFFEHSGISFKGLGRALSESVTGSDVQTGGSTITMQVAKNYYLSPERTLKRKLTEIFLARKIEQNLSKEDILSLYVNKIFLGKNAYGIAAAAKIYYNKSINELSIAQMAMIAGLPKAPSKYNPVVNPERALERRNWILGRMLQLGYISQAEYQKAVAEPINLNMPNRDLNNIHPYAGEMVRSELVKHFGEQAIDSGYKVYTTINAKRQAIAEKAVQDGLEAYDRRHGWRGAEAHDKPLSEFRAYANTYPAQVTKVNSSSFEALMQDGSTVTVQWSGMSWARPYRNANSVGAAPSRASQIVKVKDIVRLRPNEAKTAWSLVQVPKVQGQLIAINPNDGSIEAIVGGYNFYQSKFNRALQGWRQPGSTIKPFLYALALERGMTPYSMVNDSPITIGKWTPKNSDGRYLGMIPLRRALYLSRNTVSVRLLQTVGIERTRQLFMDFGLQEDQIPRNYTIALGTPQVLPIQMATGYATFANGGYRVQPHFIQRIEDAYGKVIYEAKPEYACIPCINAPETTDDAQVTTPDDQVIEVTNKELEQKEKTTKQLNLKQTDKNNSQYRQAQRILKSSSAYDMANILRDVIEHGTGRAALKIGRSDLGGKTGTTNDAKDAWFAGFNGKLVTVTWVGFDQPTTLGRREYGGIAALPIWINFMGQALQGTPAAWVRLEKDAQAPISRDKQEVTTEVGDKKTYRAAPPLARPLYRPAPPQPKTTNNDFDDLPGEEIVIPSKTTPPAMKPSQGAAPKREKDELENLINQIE
Method in brief: (§1)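 Competitive equilibrium binding with Bocillin-FL reporter: PBP pre-incubated with inhibitor dilutions, Bocillin-FL added, 15 min incubation. Labelled enzyme isolated by size-exclusion spin plates, fluorescence measured; EC50 obtained by fitting bound fraction against inhibitor concentration with a Hill-coefficient model.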

A. baumannii PBP2 = A. baumannii PBP2 (Acinetobacter baumannii, UniProt D0C8Z9); assay: Bocillin-FL competition binding via gel filtration, A. baumannii PBP2
Chain of A. baumannii PBP2 (D0C8Z9 whole entry): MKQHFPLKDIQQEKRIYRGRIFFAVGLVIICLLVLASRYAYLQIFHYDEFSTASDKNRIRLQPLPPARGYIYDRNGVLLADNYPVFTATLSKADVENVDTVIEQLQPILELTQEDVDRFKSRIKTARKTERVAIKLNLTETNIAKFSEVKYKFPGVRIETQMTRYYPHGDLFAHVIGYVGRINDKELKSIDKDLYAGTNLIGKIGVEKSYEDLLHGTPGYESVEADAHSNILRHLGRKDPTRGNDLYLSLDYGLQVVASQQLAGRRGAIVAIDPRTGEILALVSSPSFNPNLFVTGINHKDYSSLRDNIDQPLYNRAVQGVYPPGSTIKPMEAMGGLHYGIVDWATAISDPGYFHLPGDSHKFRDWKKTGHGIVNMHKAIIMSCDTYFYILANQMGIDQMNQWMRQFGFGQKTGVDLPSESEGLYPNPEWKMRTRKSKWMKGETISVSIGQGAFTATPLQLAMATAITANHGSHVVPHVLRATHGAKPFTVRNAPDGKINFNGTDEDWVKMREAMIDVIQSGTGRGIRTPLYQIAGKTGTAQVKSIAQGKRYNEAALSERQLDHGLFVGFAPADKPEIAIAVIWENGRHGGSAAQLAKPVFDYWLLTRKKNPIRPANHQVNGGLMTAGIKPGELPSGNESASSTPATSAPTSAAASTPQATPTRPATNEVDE
Method in brief: as §1

For `O=C(O)c1cccc2c1OB(O)[C@@H](NC(=O)[C@@H](NC(=O)c1cnc3n(c1=O)CCS3)c1ccc(P(=O)(O)O)cc1)C2` (single isomer, unassigned) [Example 196], the MIC (K. pneumoniae 848844) was over 128 µg/mL, the MIC (K. pneumoniae SI-117) was over 128 µg/mL and the MIC (E. coli ATCC 25922) was over 128 µg/mL. It also gave an MIC (K. pneumoniae UMM) of over 128 µg/mL, an MIC (E. coli AG100A) of over 128 µg/mL and an MIC (E. coli AG100) of over 128 µg/mL. The MIC (P. aeruginosa ATCC 27853) was over 128 µg/mL, the MIC (E. coli D22) was over 128 µg/mL and the MIC (P. aeruginosa ATCC 35151) was 8 to 16 µg/mL (≈ 13.3 to 26.7 µM). It also gave an MIC [1] of over 128 µg/mL, an MIC (A. baumannii ATCC 19606) of over 128 µg/mL and an MIC (E. coli 901C) of 32 to 64 µg/mL (≈ 53.3 to 107 µM).
Work on `O=C(O)c1cccc2c1OB(O)[C@@H](NC(=O)[C@H](NC(=O)c1cnc3n(c1=O)CCS3)c1ccc(P(=O)(O)O)cc1)C2` (single isomer, unassigned) [Example 197] yielded an MIC (K. pneumoniae 848844) of over 128 µg/mL, an MIC (K. pneumoniae SI-117) of over 128 µg/mL and an MIC (E. coli ATCC 25922) of over 128 µg/mL. For the same molecule, the MIC (K. pneumoniae UMM) was over 128 µg/mL, the MIC (E. coli AG100A) was over 128 µg/mL and the MIC (E. coli AG100) was over 128 µg/mL. It also gave an MIC (P. aeruginosa ATCC 27853) of over 128 µg/mL, an MIC (E. coli D22) of 8 to 16 µg/mL (≈ 13.3 to 26.7 µM) and an MIC (P. aeruginosa ATCC 35151) of under 1 µg/mL. For the same molecule, the MIC [1] was 32 to 64 µg/mL (≈ 53.3 to 107 µM), the MIC (A. baumannii ATCC 19606) was over 128 µg/mL and the MIC (E. coli 901C) was 2 to 4 µg/mL (≈ 3.33 to 6.66 µM).
`O=C(NCCCN1CCN(C(=O)NC(C(=O)N[C@H]2Cc3ccc(F)c(C(=O)O)c3OB2O)c2cc(F)c(O)c(O)c2Cl)C(=O)C1=O)c1ccccc1` (stereo partly drawn) [Example 202, (3R)-3-(2-(4-(3-benzamidopropyl)-2,3-dioxopiperazine-1-carboxamido)-2-(2-chloro-5-fluoro-3,4-dihydroxyphenyl)acetamido)-7-fluoro-2-hydroxy-3,4-dihydro-2H-benzo[e][1,2]oxaborinine-8-carboxylic acid] showed an EC50 (A. baumannii PBP1a) of 10 to 50 µM and an EC50 (A. baumannii PBP2) of 50 to 250 µM.
For `O=C(NCCN1CCN(C(=O)NC(C(=O)N[C@H]2Cc3ccc(F)c(C(=O)O)c3OB2O)c2cc(F)c(O)c(O)c2Cl)C(=O)C1=O)Nc1ccc(O)cc1` (stereo partly drawn) [Example 219, (3R)-3-(2-(2-chloro-5-fluoro-3,4-dihydroxyphenyl)-2-(4-(2-(3-(4-hydroxyphenyl)ureido)ethyl)-2,3-dioxopiperazine-1-carboxamido)acetamido)-7-fluoro-2-hydroxy-3,4-dihydro-2H-benzo[e][1,2]oxaborinine-8-carboxylic acid], the EC50 (A. baumannii PBP1a) was under 10 µM and the EC50 (A. baumannii PBP2) was 10 to 50 µM.
Molecule `O=C(NCCN1CCN(C(=O)NC(C(=O)N[C@H]2Cc3ccc(F)c(C(=O)O)c3OB2O)c2cc(F)c(O)c(O)c2Cl)C(=O)C1=O)Nc1cccc(O)c1` (stereo partly drawn) [Example 220, (3R)-3-(2-(2-chloro-5-fluoro-3,4-dihydroxyphenyl)-2-(4-(2-(3-(3-hydroxyphenyl)ureido)ethyl)-2,3-dioxopiperazine-1-carboxamido)acetamido)-7-fluoro-2-hydroxy-3,4-dihydro-2H-benzo[e][1,2]oxaborinine-8-carboxylic acid] has an EC50 (A. baumannii PBP1a) of under 10 µM and an EC50 (A. baumannii PBP2) of under 10 µM.
Work on `O=C(NCCCN1CCN(C(=O)N[C@@H](C(=O)N[C@H]2Cc3ccc(F)c(C(=O)O)c3OB2O)c2cc(F)c(O)c(O)c2Cl)C1=O)c1ccccc1` [Example 253, (R)-3-((R)-2-(3-(3-benzamidopropyl)-2-oxoimidazolidine-1-carboxamido)-2-(2-chloro-5-fluoro-3,4-dihydroxyphenyl)acetamido)-7-fluoro-2-hydroxy-3,4-dihydro-2H-benzo[e][1,2]oxaborinine-8-carboxylic acid] yielded an EC50 (A. baumannii PBP1a) of 10 to 50 µM and an EC50 (A. baumannii PBP2) of under 10 µM.
In the case of `O=C(NCCS(=O)(=O)N1CCN(C(=O)NC(C(=O)N[C@H]2Cc3ccc(F)c(C(=O)O)c3OB2O)c2cc(F)c(O)c(O)c2Cl)C1=O)c1ccccc1` (stereo partly drawn) [Example 260, (3R)-3-(2-(3-((2-benzamidoethyl)sulfonyl)-2-oxoimidazolidine-1-carboxamido)-2-(2-chloro-5-fluoro-3,4-dihydroxyphenyl)acetamido)-7-fluoro-2-hydroxy-3,4-dihydro-2H-benzo[e][1,2]oxaborinine-8-carboxylic acid], the EC50 (A. baumannii PBP2) is reported as 10 to 50 µM.
`O=C(NCCS(=O)(=O)N1CCN(C(=O)NC(C(=O)N[C@H]2Cc3ccc(F)c(C(=O)O)c3OB2O)c2cc(F)c(O)c(O)c2Cl)C1=O)c1cccc(O)c1` (stereo partly drawn) [Example 261, (3R)-3-(2-(2-chloro-5-fluoro-3,4-dihydroxyphenyl)-2-(3-((2-(3-hydroxybenzamido)ethyl)sulfonyl)-2-oxoimidazolidine-1-carboxamido)acetamido)-7-fluoro-2-hydroxy-3,4-dihydro-2H-benzo[e][1,2]oxaborinine-8-carboxylic acid] showed an EC50 (A. baumannii PBP1a) of 10 to 50 µM and an EC50 (A. baumannii PBP2) of 10 to 50 µM.
`O=C(NCCS(=O)(=O)N1CCN(C(=O)NC(C(=O)N[C@H]2Cc3ccc(F)c(C(=O)O)c3OB2O)c2cc(F)c(O)c(O)c2Cl)C1=O)Nc1cccc(O)c1` (stereo partly drawn) [Example 266, (3R)-3-(2-(2-chloro-5-fluoro-3,4-dihydroxyphenyl)-2-(3-((2-(3-(3-hydroxyphenyl)ureido)ethyl)sulfonyl)-2-oxoimidazolidine-1-carboxamido)acetamido)-7-fluoro-2-hydroxy-3,4-dihydro-2H-benzo[e][1,2]oxaborinine-8-carboxylic acid] was tested, and the EC50 (A. baumannii PBP1a) was under 10 µM and the EC50 (A. baumannii PBP2) was 10 to 50 µM.
In the case of `O=C(NCCCS(=O)(=O)N1CCN(C(=O)NC(C(=O)N[C@H]2Cc3ccc(F)c(C(=O)O)c3OB2O)c2cc(F)c(O)c(O)c2Cl)C1=O)c1ccccc1` (stereo partly drawn) [Example 268, (3R)-3-(2-(3-((3-benzamidopropyl)sulfonyl)-2-oxoimidazolidine-1-carboxamido)-2-(2-chloro-5-fluoro-3,4-dihydroxyphenyl)acetamido)-7-fluoro-2-hydroxy-3,4-dihydro-2H-benzo[e][1,2]oxaborinine-8-carboxylic acid], the EC50 (A. baumannii PBP1a) is reported as 10 to 50 µM and the EC50 (A. baumannii PBP2) is reported as 10 to 50 µM.
Work on `O=C(NCCCS(=O)(=O)N1CCN(C(=O)NC(C(=O)N[C@H]2Cc3ccc(F)c(C(=O)O)c3OB2O)c2cc(F)c(O)c(O)c2Cl)C1=O)c1ccc(O)cc1` (stereo partly drawn) [Example 269, (3R)-3-(2-(2-chloro-5-fluoro-3,4-dihydroxyphenyl)-2-(3-((3-(4-hydroxybenzamido)propyl)sulfonyl)-2-oxoimidazolidine-1-carboxamido)acetamido)-7-fluoro-2-hydroxy-3,4-dihydro-2H-benzo[e][1,2]oxaborinine-8-carboxylic acid] yielded an EC50 (A. baumannii PBP1a) of under 10 µM and an EC50 (A. baumannii PBP2) of 10 to 50 µM.
With `O=C(NCCCS(=O)(=O)N1CCN(C(=O)N[C@@H](C(=O)N[C@H]2Cc3ccc(F)c(C(=O)O)c3OB2O)c2cc(F)c(O)c(O)c2Cl)C1=O)c1cccc(O)c1` [Example 271, (R)-3-((R)-2-(2-chloro-5-fluoro-3,4-dihydroxyphenyl)-2-(3-((3-(3-hydroxybenzamido)propyl)sulfonyl)-2-oxoimidazolidine-1-carboxamido)acetamido)-7-fluoro-2-hydroxy-3,4-dihydro-2H-benzo[e][1,2]oxaborinine-8-carboxylic acid] the EC50 (A. baumannii PBP1a) was under 10 µM and the EC50 (A. baumannii PBP2) was under 10 µM.
`O=C(NCCCS(=O)(=O)N1CCN(C(=O)NC(C(=O)N[C@H]2Cc3ccc(F)c(C(=O)O)c3OB2O)c2cc(F)c(O)c(O)c2Cl)C1=O)c1cccnc1` (stereo partly drawn) [Example 273, (3R)-3-(2-(2-chloro-5-fluoro-3,4-dihydroxyphenyl)-2-(3-((3-(nicotinamido)propyl)sulfonyl)-2-oxoimidazolidine-1-carboxamido)acetamido)-7-fluoro-2-hydroxy-3,4-dihydro-2H-benzo[e][1,2]oxaborinine-8-carboxylic acid] gave an EC50 (A. baumannii PBP2) of 10 to 50 µM.
